Data on two compounds can be found in patent publication US20240325340A1, “ISOFORM SPECIFIC AGONISTS TARGETING AKT KINASE” (Thomas Jefferson University, priority 2021, published 2024).

The structures appear in SMILES notation. “Also recorded” adds a separate entry of the source.

For data set [1], the target named is recombinant pAkt1 (Homo sapiens, UniProt P31749). As to the kind of experiment: Recombinant phospho-Akt dephosphorylation by PP2A or total cellular phosphatase extracts (immunoblot pT308). The data set is classed as biochemical. The following applies: 60 μM compound, 30 minutes at 30° C. As for the experimental part:
FIG. 1A: Recombinant phospho-Akt (50 ng) were pre-mixed with DMSO or with 40 μM 4H-Chromenes with carboxylate side chain (SC-79 and HA-14) or with 60 μM malononitrile side chain (T625) at 4° C. Then recombinant PP2A (70 ng PP2A-C) or total cellular phosphatase extracts were added and incubated for 30 minutes at 30° C. After incubation, protein extracts were subjected to immunoblot analysis using antibodies detecting phosphorylated Akt (T308), total Akt and PP2A catalytic subunit. FIG. 1B comprises a graph showing the percentage of Akt dephosphorylation at 30 minutes (Dephos. %) (n=6) *P<0.01 vs. DMSO.
Background: In western blotting, separated proteins are transferred to a membrane and probed.

The target of data set [2] is T1, Akt2-LT WT (Homo sapiens, UniProt P31751).
T1 construct: expressed in transfected cells; host or cells: H9C2 myoblasts
T1 sequence (P31751 whole entry): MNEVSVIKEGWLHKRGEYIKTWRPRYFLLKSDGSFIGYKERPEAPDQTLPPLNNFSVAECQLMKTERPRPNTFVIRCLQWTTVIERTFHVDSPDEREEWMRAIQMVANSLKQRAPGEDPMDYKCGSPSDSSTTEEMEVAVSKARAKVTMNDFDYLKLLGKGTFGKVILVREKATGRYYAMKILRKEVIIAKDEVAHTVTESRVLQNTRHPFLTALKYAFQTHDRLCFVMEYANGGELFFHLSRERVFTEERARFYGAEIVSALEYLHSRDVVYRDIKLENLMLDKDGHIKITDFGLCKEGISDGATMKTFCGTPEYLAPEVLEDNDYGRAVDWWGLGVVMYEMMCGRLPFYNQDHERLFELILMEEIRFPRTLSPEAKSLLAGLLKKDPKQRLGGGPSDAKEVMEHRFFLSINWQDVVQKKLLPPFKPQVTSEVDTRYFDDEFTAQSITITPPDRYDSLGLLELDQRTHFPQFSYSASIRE
As to the kind of experiment: Phosphorylation of heterologously expressed Akt2-LT WT in H9C2 myoblasts. Conditions: serum-free media, 2 hr. The data set is classed as cell-based. As for the experimental part: (§1) FIGS. 2A-2B: illustrate the finding that T625's position 6 analogues differentially activate Akt and induce cellular toxicity. FIG. 2A: To distinguish heterologous-expressed Akt from endogenous Akt, a 41 amino acid large tag containing the HA-epitope was fused with wild type Akt2 (Akt2-LT WT). H9C2 myoblasts over-expressing Akt2-LT WT were treated with insulin or indicated compounds in serum-free media for 2 hr. Phosphorylation of T309 and total Akt2 are shown. FIG. 2B: Cell images show A549 AT2 cell morphology after 24 hr of drug treatment.

For data set [3], the system named is E17-Y18-I19 and R23-R25 mutated Akt kinase (Akt1-LT). As to the kind of experiment: pT308 phosphorylation of mutated Akt1-LT constructs in H9C2 cells. The following applies: 2 μM insulin 15 minutes. The data set is classed as cell-based. An excerpt: FIGS. 3A-3D: illustrate a model of T625 C-6 interaction space within the Akt PH domain and biochemical validation of the model. FIG. 3A: Model of the Akt2 PH-domain bound to T625 where all residue numbering corresponds to the Akt2 sequence. The C-6 Cl group act as the most optimal structural mimetic of the phosphate's electrostatic interactions with Arg23 and surrounding residues. […] To distinguish heterologous-expressed Akt from endogenous Akt, a 41 amino acid large tag containing the HA-epitope was fused with Akt1 (Akt1-LT) and specific mutations were created by site-directed mutagenesis. H9C2 cells expressing the indicated mutant constructs were stimulated for 15 minutes with 2 μM insulin, then switch to serum-free medium with 30 μM T625 as indicated for 60 minutes. […] H9C2 cells expressing the indicated mutant constructs were stimulated for 15 minutes with 2 μM insulin, then switch to serum-free medium with 20 μM T625 as indicated for 90 minutes. Phosphorylation of T308 in Akt1-LT and endogenous Akt, HA and GAPDH loading control blots are shown. FIG. 3D: Graph of specific pT308 phosphorylation in the indicated Akt1-LT constructs with or without T625 treatment. N is indicated.

Data set [4] has as its system Akt. As to the kind of experiment: Ceramide and cathepsin G blockade of insulin activation of Akt in H9C2 myoblasts. The data set is classed as cell-based. The following applies: H9C2 myoblasts, 30 μM T625 with insulin, 30 minutes. As for the experimental part: (§2) H9C2 myoblasts or neonatal rat myocytes were treated with neutrophil protease Cathepsin G (0.01 U/mL), 4 hr or with 100 μM C2-Ceramide (100 μM), 2 hr. Then cells were stimulated with insulin with or without 30 μM T625 for 30 minutes. Lysates were immunoblotted with the indicated antibodies.

For data set [5], the system named is Akt. As to the kind of experiment: Ceramide and cathepsin G blockade of insulin activation of Akt in neonatal rat myocytes. Format: cell-based. The following applies: 30 μM T625 with insulin, 30 minutes. As for the experimental part:
as §2

Data set [6] relates to Akt. As to the kind of experiment: Aerosolized inhalation (FlexiVent) Akt activation in mouse lung. Format: in vivo. The protocol: 8 week old (wk) wild type mice were deprived of food overnight. Anesthetized mice were intubated on the FlexiVent system and challenged with aerosolized inhaled insulin or T625 as indicated. Lung tissue was harvested 20 minutes after drug inhalation. Extracts were immunoblotted with indicated antibodies.
(§3) A FlexiVent system (SCIREQ) was used to deliver Akt activator, T625, directly to mouse lung. This procedure closely mimics the clinical application of inhaled insulin. […] Akt activators were also administered in the setting of mouse cardiac ischemia-reperfusion injury model (FIGS. 13A-13C). T625 was directly injected into the left ventricular free wall at the time of ischemic ligation of exteriorized heart. Also, to mimic clinical use, (IP) Akt activators were intraperitoneally injected within 10 min after ischemia initiation. It was shown that both directly applied and intraperitoneally injected Akt activators activated Akt in the heart. Finally, a splinted murine excisional wound model that mimic human wound healing was used. Akt activators were placed directly into the wound ring, mimicking the clinical topical application of growth factors.

For data set [7], the system named is Akt. As to the kind of experiment: Mouse cardiac ischemia-reperfusion injury model, Akt activation in heart. The data set is classed as in vivo. Conditions: directly injected or intraperitoneally injected after ischemic-ligation. The protocol: FIG. 13A: A schematic of ischemic-reperfusion procedure indicating drug injection time and heart harvest time. FIG. 13B: Illustrates immunoblots of pS473, Akt phospho-substrate, pPRAS40 and GAPDH in the WES auto-western system. After ischemic-ligation, T625 (0.8 μg in 20 μl PBS) were directly injected at three spots of exposed ventricular wall. Injected insulin was used as a control. FIG. 13C: Illustrates immunoblots of pT308, total Akt (tAkt) and GAPDH and quantified pT308/tAkt ratio. After ischemic-ligation, T620 and T625 were directly injected or intraperitoneally injected.
as §3, with “Akt activators were placed directly into the wound ring, mimicking the clinical topical application of growth factors.” left out

Data set [8] can be described thus: Compound stability. The data set is classed as physicochemical.
The subject of data set [9] is cells. As to the kind of experiment: Cellular toxicity (cells not specified). Format: cell-based.
Data set [10] has as its system A549 AT2 cell. As to the kind of experiment: A549 AT2 cell morphology after 24 hr of drug treatment. The data set is classed as cell-based, human. Conditions: A549 AT2 cells. As for the experimental part: as §1
In data set [11] the test system is A549 cells. As to the kind of experiment: Cytotoxicity by release of lactate dehydrogenase (LDH) in A549 cells. The data set is classed as cell-based, human. Conditions: 40 μM, 24 hours, serum-free media. The protocol: Cytotoxicity was determined by the release of lactate dehydrogenase (LDH) into cell culture media. A549 cells were incubated with 40 μM of each compound for 24 hours in serum-free media (n=3 for each compound). FIG. 8B: A visual assessment of cell morphology after 24 hrs treatment with 40 μM of each compound in serum-free media. 100× images are shown.

The subject of data set [12] is Hacat cells. As to the kind of experiment: Cellular toxicity / cell morphology in Hacat cells after 24 hrs. The data set is classed as cell-based, human. Conditions: 40 μM.
The test system of data set [13] is Hacat cells. As to the kind of experiment: Human keratinocyte migration (cell-free gap) assay. Conditions: 40 μM, 22 hr, serum-starved. Format: cell-based. As for the experimental part: FIGS. 11A-11B illustrates the finding that Akt activators in human keratinocyte cell line induce VEGF secretion and enhanced cell migration. FIG. 11A: Human keratinocyte line, HaCat cells, was incubated with 20 μM of each Akt activators for 24 hours. Insulin (3.5 μg/ml) and IGF1 (100 ng/mL) treatment were used as positive control. […] HaCaT cells were plated into silicone insert molds with a […] defined cell-free gap (Ibidi) and serum-starved overnight. Then, the mold barrier was removed and cells were treated with 40 μM T620. After 22 hr, the gap spaces were imaged at 100×. Two images of control and four images of T620 treated gap spaces are shown.

The subject of data set [14] is Akt. As to the kind of experiment: Splinted murine excisional skin wound model, topical treatment. The data set is classed as in vivo, mouse. Conditions: 20 μL of 40 μM applied within the wound silicone circle, 20 min. The protocol:
FIGS. 14A-14B illustrate the use of an Akt activator as topical treatment for healing mouse skin wound. […] 20 μL of indicated compounds were applied within the skin wound silicone circle for 20 min. Wound tissues were harvested and blotted with anti-Akt pS473 and GAPDH using the Proteinsimple WES system. Growth factor (GF) mixture (insulin, PDGF and IGF1 growth factor) or 40 μM T620 in corn oil or in PBS as vehicles. […] Images of WT mouse skin wound after vehicle (0.7% DMSO in PBS) or 40 μM T620 treatment at Day 3. Wound images and hematoxylin sections showing wound edge and wound bed are shown. Scale bar=400 μm.
as §3, with “Akt activators were placed directly into the wound ring, mimicking the clinical topical application of growth factors.” left out

recombinant pAkt1, sequence (P31749 whole entry): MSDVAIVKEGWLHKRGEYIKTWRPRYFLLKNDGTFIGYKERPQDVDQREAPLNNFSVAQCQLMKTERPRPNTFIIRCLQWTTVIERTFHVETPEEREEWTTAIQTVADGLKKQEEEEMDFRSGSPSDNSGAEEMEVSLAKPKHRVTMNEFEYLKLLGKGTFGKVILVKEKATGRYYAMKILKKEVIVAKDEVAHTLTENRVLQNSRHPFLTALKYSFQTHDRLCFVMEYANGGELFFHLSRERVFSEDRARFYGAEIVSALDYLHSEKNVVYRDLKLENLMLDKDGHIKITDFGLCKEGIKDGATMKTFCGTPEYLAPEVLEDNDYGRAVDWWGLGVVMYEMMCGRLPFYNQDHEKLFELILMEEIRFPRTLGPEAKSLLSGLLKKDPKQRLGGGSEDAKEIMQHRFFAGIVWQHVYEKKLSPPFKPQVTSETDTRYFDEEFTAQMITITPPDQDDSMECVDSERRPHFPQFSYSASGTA

On to `N#CC1=C(N)Oc2ccc(Cl)cc2C1C(C#N)C#N` (centres unmarked) [T625, 2-(2-amino-6-chloro-3-cyano-4H-chromen-4-yl)propanedinitrile], for which, in [1], the “block of recombinant pAkt1 dephosphorylation by PP2A and cellular phosphatases” value is “block recombinant pAkt1 dephosphorylation by PP2A and cellular phosphatases”. In addition, in [2], the “Akt activation in cells (phosphorylation of T309 of Akt2-LT WT)” value is given as “retaining Akt activation; also recorded: activate Akt”. Moreover, the “effect on phosphorylation of mutated Akt kinase” value in data set [3] (E17-Y18-I19 and R23-R25 mutants, then 30 μM T625 60 minutes) is reported as “acts as an inhibitor”; in data set [3] (mutations in E17 and/or 119, then 20 μM T625 90 minutes) it was “converting the T625 response from activation to inhibition”. Moreover, the “rescue of ceramide and cathepsin G blockade of Akt activation by insulin” value in data set [4] was “rescues ceramide and cathepsin G blockade of Akt activation”; in data set [5], “rescues ceramide and cathepsin G blockade of Akt activation”. Also, the “Akt kinase activation in mouse lung” value in data set [6] (60 μg, delivered directly to mouse lung by FlexiVent) was “retaining Akt activation; also recorded: robustly activated Akt kinase in mouse lung”. In data set [6] (aerosolized inhaled, lung tissue harvested 20 minutes after inhalation), the “insulin sensitivity in vivo” value is given as “enhanced insulin sensitivity”. In addition, in data set [6] (suboptimal dose 15 μg with suboptimal insulin dose 5 μg), the “Akt activation in mouse lung tissue in combination with insulin” value is on record as “cooperated with suboptimal insulin dose (5 μg) to activate Akt in mouse lung tissue”. In data set [7], the “Akt activation in mouse heart during ischemia-reperfusion” value is reported as “enhanced Akt activation in mouse heart”. For the same compound, the compound stability result in [8] is given as “enhanced compound stability”. Besides, in data set [9], the cellular toxicity result was “dramatically reduced cellular toxicity”.

`N#CC1=C(N)Oc2ccc([N+](=O)[O-])cc2C1C(C#N)C#N` (centres unmarked) [T620, 2-(2-amino-3-cyano-6-nitro-4H-chromen-4-yl)propanedinitrile]: the “Akt activation in cells (phosphorylation of T309 of Akt2-LT WT)” value in [2] is reported as “preserved Akt activation; also recorded: activate Akt”. Also, in data set [10], the “cellular toxicity (cell morphology)” value was “greatly reduced toxicity”. In addition, in [11], the “cellular toxicity (LDH release)” value was “low toxicity; also recorded: failed to show significant cellular toxicity; also recorded: reduced cellular toxicity”. Also, the cellular toxicity result in data set [12] is recorded as “failed to show significant cellular toxicity”; in [9] it was “reduced toxicity”. Besides, the keratinocyte migration entry in data set [13] was “enhance human keratinocyte migration”. The “Akt activation in mouse heart during ischemia-reperfusion” value in data set [7] was “enhanced Akt activation in mouse heart”. For the same compound, the “Akt activation (pS473) within mouse skin wounds” value in data set [14] is “activated Akt within mouse skin wounds”.
